From ChEMBL document CHEMBL3627672, “Structure-activity relationship study of syringolin A as a potential anticancer agent” (Bioorg Med Chem Lett, 2015)

Columns and labels:
HCT-116 = assay: Antiproliferative activity against human HCT116 cells after 72 hrs by oxyluciferin luminescence assay; details: HCT-116, 72 h
RKO = assay: Antiproliferative activity against human RKO cells after 72 hrs by oxyluciferin luminescence assay
A-431 = assay: Antiproliferative activity against human A431 cells after 72 hrs by oxyluciferin luminescence assay; details: A-431, 72 h
[1] = Antiproliferative activity against human RPMI8266 cells after 72 hrs by oxyluciferin luminescence assay; details: RPMI8266, 72 h
CCRF-CEM = assay: Antiproliferative activity against human CCRF-CEM cells after 72 hrs by oxyluciferin luminescence assay
[2] = Antiproliferative activity against human TOV21G cells after 72 hrs by oxyluciferin luminescence assay

| IC50 (HCT-116) [nM] | IC50 (A-431) [nM] | IC50 (CCRF-CEM) [nM] | SMILES | IC50 (RKO) [nM] | IC50 [1] [nM] | IC50 [2] [nM] |
| --- | --- | --- | --- | --- | --- | --- |
| 31 | 29.3 | 1.5 | CCCCCCCCCC(=O)N[C@@H](Cc1cccc2ccccc12)C(=O)N[C@H]1/C=C/CCNC(=O)/C=C/[C@H](C(C)C)NC1=O | 31.3 | 7.4 | 13.2 |
| 18.5 | 17.8 | 5 | CCCCCCCCCC(=O)N[C@@H](Cc1ccc2ccccc2c1)C(=O)N[C@H]1/C=C/CCNC(=O)/C=C/[C@H](C(C)C)NC1=O | 15.2 | 10.9 | 14.1 |
| 26.7 | 29.7 | 24.9 | CCCCCCCCCC(=O)N[C@@H](Cc1ccco1)C(=O)N[C@H]1/C=C/CCNC(=O)/C=C/[C@H](C(C)C)NC1=O | 20.1 | 24.1 | 22.3 |
| 15.5 | 18.7 | 11 | CCCCCCCCCC(=O)N[C@@H](Cc1cccs1)C(=O)N[C@H]1/C=C/CCNC(=O)/C=C/[C@H](C(C)C)NC1=O | 20.8 | 14.4 | 16.7 |
| 9.1 | 15 | 4.2 | CCCCCCCCCC(=O)N[C@@H](Cc1ccsc1)C(=O)N[C@H]1/C=C/CCNC(=O)/C=C/[C@H](C(C)C)NC1=O | 11.3 | 5.7 | 10.2 |
| 44.5 | 45.5 | 16.8 | CCCCCCCCCC(=O)N[C@@H](Cc1c[nH]c2ccccc12)C(=O)N[C@H]1/C=C/CCNC(=O)/C=C/[C@H](C(C)C)NC1=O | 39.4 | 27.5 | 13.5 |
| > 1000 | > 1000 | 197 | CCCCCCCCCC(=O)N(C)[C@@H](Cc1ccccc1)C(=O)N[C@H]1/C=C/CCNC(=O)/C=C/[C@H](C(C)C)NC1=O | > 1000 | > 1000 | > 1000 |
| 402 | 413 | 61.1 | CCCCC(=O)N[C@@H](Cc1ccccc1)C(=O)N[C@H]1/C=C/CCNC(=O)/C=C/[C@H](C(C)C)NC1=O | 415 | 138 | 427 |
| 61.4 | 128 | 28.6 | CCCCCC(=O)N[C@@H](Cc1ccccc1)C(=O)N[C@H]1/C=C/CCNC(=O)/C=C/[C@H](C(C)C)NC1=O | 52.6 | 42.6 | 131 |
| 24.5 | 57.7 | 11.6 | CCCCCCC(=O)N[C@@H](Cc1ccccc1)C(=O)N[C@H]1/C=C/CCNC(=O)/C=C/[C@H](C(C)C)NC1=O | 33.4 | 18.9 | 60.7 |
| 14 | 20.2 | 6.6 | CCCCCCCC(=O)N[C@@H](Cc1ccccc1)C(=O)N[C@H]1/C=C/CCNC(=O)/C=C/[C@H](C(C)C)NC1=O | 14.8 | 9.9 | 19 |
| 7.1 | 18.2 | 1.8 | CCCCCCCCC(=O)N[C@@H](Cc1ccccc1)C(=O)N[C@H]1/C=C/CCNC(=O)/C=C/[C@H](C(C)C)NC1=O | 8.6 | 8.2 | 10.4 |
| 36 | 38.2 | 7.4 | CCCCCCCCCCC(=O)N[C@@H](Cc1ccccc1)C(=O)N[C@H]1/C=C/CCNC(=O)/C=C/[C@H](C(C)C)NC1=O | 19.2 | 14.4 | 19.3 |
| 37.4 | 44.8 | 14.8 | CCCCCCCCCCCC(=O)N[C@@H](Cc1ccccc1)C(=O)N[C@H]1/C=C/CCNC(=O)/C=C/[C@H](C(C)C)NC1=O | 33.6 | 29.6 | 27.5 |
| 73.9 | 82.2 | 36.9 | CCCCCCCCCCCCC(=O)N[C@@H](Cc1ccccc1)C(=O)N[C@H]1/C=C/CCNC(=O)/C=C/[C@H](C(C)C)NC1=O | 49.8 | 88.3 | 48.3 |
| 413 | 430 | 409 | CCCCCCCCCCCCCC(=O)N[C@@H](Cc1ccccc1)C(=O)N[C@H]1/C=C/CCNC(=O)/C=C/[C@H](C(C)C)NC1=O | 470 | 735 | 425 |
| 45.1 | 27.8 | 11 | CCCCCCCCCC(=O)N[C@H](C(=O)N[C@H]1/C=C/CCNC(=O)/C=C/[C@H](C(C)C)NC1=O)c1ccccc1 | 20.8 | 26.9 | 9.5 |
| 28.4 | 16.8 | 11.6 | CCCCCCCCCC(=O)N[C@@H](CCc1ccccc1)C(=O)N[C@H]1/C=C/CCNC(=O)/C=C/[C@H](C(C)C)NC1=O | 27 | 14.9 | 9.6 |
| 40.6 | 31.7 | 9.4 | CCCCCCCCCC(=O)N[C@@H](CCCc1ccccc1)C(=O)N[C@H]1/C=C/CCNC(=O)/C=C/[C@H](C(C)C)NC1=O | 39.8 | 23.5 | 8.5 |

| IC50 (HCT-116) [nM] | IC50 (A-431) [nM] | IC50 (CCRF-CEM) [nM] | SMILES | IC50 (RKO) [nM] | IC50 [1] [nM] | IC50 [2] [nM] |
| --- | --- | --- | --- | --- | --- | --- |
| 38.6 | 52.8 | 21.4 | CCCCCCCCCC(=O)N[C@@H](CC1CCCCC1)C(=O)N[C@H]1/C=C/CCNC(=O)/C=C/[C@H](C(C)C)NC1=O | 35.1 | 21 | 48.9 |
| 7.1 | 14.9 | 3.3 | CCCCCCCCCC(=O)N[C@@H](Cc1ccccc1F)C(=O)N[C@H]1/C=C/CCNC(=O)/C=C/[C@H](C(C)C)NC1=O | 6.8 | 5.6 | 8.2 |
| 15 | 27.7 | 5.5 | CCCCCCCCCC(=O)N[C@@H](Cc1cccc(F)c1)C(=O)N[C@H]1/C=C/CCNC(=O)/C=C/[C@H](C(C)C)NC1=O | 11.8 | 8.8 | 21.1 |
| 23.1 | 33.2 | 4.9 | CCCCCCCCCC(=O)N[C@@H](Cc1ccc(F)cc1)C(=O)N[C@H]1/C=C/CCNC(=O)/C=C/[C@H](C(C)C)NC1=O | 14.8 | 8.6 | 19 |
| 8.7 | 9.9 | 8.2 | CCCCCCCCCC(=O)N[C@@H](Cc1ccccc1Cl)C(=O)N[C@H]1/C=C/CCNC(=O)/C=C/[C@H](C(C)C)NC1=O | 7.4 | 8.8 | 7.1 |
| 15.6 | 18.4 | 5.2 | CCCCCCCCCC(=O)N[C@@H](Cc1cccc(Cl)c1)C(=O)N[C@H]1/C=C/CCNC(=O)/C=C/[C@H](C(C)C)NC1=O | 14.9 | 9.4 | 13.8 |
| 21.7 | 23.3 | 4.5 | CCCCCCCCCC(=O)N[C@@H](Cc1ccc(Cl)cc1)C(=O)N[C@H]1/C=C/CCNC(=O)/C=C/[C@H](C(C)C)NC1=O | 19.6 | 12 | 12.3 |
| 13.4 | 13.4 | 3.9 | CCCCCCCCCC(=O)N[C@@H](Cc1ccccc1Br)C(=O)N[C@H]1/C=C/CCNC(=O)/C=C/[C@H](C(C)C)NC1=O | 13 | 9.4 | 9.6 |
| 18 | 15.5 | 4.6 | CCCCCCCCCC(=O)N[C@@H](Cc1cccc(Br)c1)C(=O)N[C@H]1/C=C/CCNC(=O)/C=C/[C@H](C(C)C)NC1=O | 16.3 | 9.6 | 12.8 |
| 33.4 | 25.6 | 18.4 | CCCCCCCCCC(=O)N[C@@H](Cc1ccc(Br)cc1)C(=O)N[C@H]1/C=C/CCNC(=O)/C=C/[C@H](C(C)C)NC1=O | 33.7 | 28.3 | 24.1 |
| 12 | 8.9 | 3.6 | CCCCCCCCCC(=O)N[C@@H](Cc1ccccc1C)C(=O)N[C@H]1/C=C/CCNC(=O)/C=C/[C@H](C(C)C)NC1=O | 9.5 | 8.8 | 6.2 |
| 7 | 6.9 | 3.5 | CCCCCCCCCC(=O)N[C@@H](Cc1cccc(C)c1)C(=O)N[C@H]1/C=C/CCNC(=O)/C=C/[C@H](C(C)C)NC1=O | 7.3 | 8.4 | 6.2 |
| 28.1 | 18.9 | 1.9 | CCCCCCCCCC(=O)N[C@@H](Cc1ccc(C)cc1)C(=O)N[C@H]1/C=C/CCNC(=O)/C=C/[C@H](C(C)C)NC1=O | 15.5 | 4.8 | 9.1 |
| 68.5 | 134 | 32.3 | CCCCCCCCCC(=O)N[C@@H](Cc1ccc(O)cc1)C(=O)N[C@H]1/C=C/CCNC(=O)/C=C/[C@H](C(C)C)NC1=O | 43.7 | 28.3 | 151 |
| 19.2 | 23.5 | 8.6 | CCCCCCCCCC(=O)N[C@@H](Cc1ccccn1)C(=O)N[C@H]1/C=C/CCNC(=O)/C=C/[C@H](C(C)C)NC1=O | 18.2 | 15 | 10.7 |
| 29.4 | 24.4 | 27.5 | CCCCCCCCCC(=O)N[C@@H](Cc1cccnc1)C(=O)N[C@H]1/C=C/CCNC(=O)/C=C/[C@H](C(C)C)NC1=O | 17.1 | 15.5 | 5.1 |
| 56.3 | 50.3 | 35.7 | CCCCCCCCCC(=O)N[C@@H](Cc1ccncc1)C(=O)N[C@H]1/C=C/CCNC(=O)/C=C/[C@H](C(C)C)NC1=O | 47.3 | 72.6 | 14.5 |
| 27.1 | 21.9 | 12.3 | CCCCCCCCCC(=O)N[C@@H](Cc1ccc(-c2ccccc2)cc1)C(=O)N[C@H]1/C=C/CCNC(=O)/C=C/[C@H](C(C)C)NC1=O | 30.4 | 19.7 | 16.8 |
